Measured values: patent publication US10301280B2 (Plexxikon Inc., priority 2012, dated 2019)

How the values were obtained:
c-kit mutant D816V = c-kit mutant D816V (Homo sapiens (Human), UniProt P10721, D816V/DEL694-753); assay: c-Kit mutant D816V biochemical assay (AlphaScreen); settings: c-kit D816V biochemical inhibitory activity
Protocol: The c-kit mutant D816V (or kinase domain thereof) is an active kinase in AlphaScreen. IC50 values are determined with respect to inhibition of c-Kit mutant D816V kinase activity, where inhibition of phosphorylation of a peptide substrate is measured as a function of compound concentration. Compounds to be tested were dissolved in DMSO to a concentration of 20 mM. These were diluted 30 μl into 120 μl of DMSO (4 mM) and 1 μl was added to an assay plate. These were then serially diluted 1:3 (50 μl to 100 μl DMSO) for a total of 8 points. Plates were prepared such that each kinase reaction is 20 μl in 1× kinase buffer (25 mM HEPES, pH 7.2, 8 mM MgCl2, 2 mM MnCl2, 50 mM NaCl, 0.01% Brij, 1 mM DTT, 0.01% BSA), 5% DMSO and 10 μM ATP. Substrate was 30 nM biotin-(E4Y)10 (EMD Millipore, Cat#12-440). C-kit mutant D816V kinase was at 0.75 ng per sample. After incubation of the kinase reaction for 30 minutes at room temperature, 5 μl of donor beads (Streptavidin coated beads (Perkin Elmer Life Science) final concentration 7.5 μg/ml) in stop buffer (25 mM Hepes pH 7.5, 100 mM EDTA, 0.01% BSA) was added, the sample was mixed and incubated for 20 minutes at room temperature before adding 5 μl of acceptor beads (PY20 coated beads (Perkin Elmer Life Science) final concentration 7.5 ug/ml) in stop buffer. The samples were incubated for 60 minutes at room temperature and the signal per well was read on EnVision reader. Phosphorylated substrate results in binding of the PY20 antibody and association of the donor and acceptor beads such that signal correlates with kinase activity. The signal vs. compound concentration was used to determine the IC50.
Recombinant c-kit mutant D816V (residues 551-934, kinase insertion domain residues 694-753 deleted) with a 6x-histidine N-terminal tag was expressed in E. coli Arctic Express (DE3) RIL (Stratagene). Cells were grown in Terrific Broth (TB) media to an OD600 of 0.6 at 37° C. at which temperature was reduced to 10° C., protein was induced with 1.0 mM IPTG for 18 hours and harvested by centrifugation at 8000×g for 20 minutes. Cells were re-suspended in 0.1M KPO4 pH 8.0, 250 mM NaCl, 10% Glycerol, 0.75% NP-40, 25 mM Imidazole, 5 mM BME with 0.2 mg/ml Lysosyme, 2.0 mM PMSF, 25 μg/ml DNAse I, incubated in ice for 30 minutes and lyzed with a cell disruptor (MicroFluidics). The lysate was clarified by centrifugation at 20,000×g for 2 hours. The protein was captured with Talon resin (Clontech). Contaminating proteins were washed off with 25 mM Tris-HCl pH 8.3, 250 mM NaCl, 15% Glycerol, 1% Triton X-100, and protein eluted using 100 mM EDTA. The protein was further purified using Gel Filtration column 26/600 Superdex 200 (GE) in 50 mM Tris-HCl, pH 8.0, 250 mM NaCl, 15% Glycerol, 5 mM BME. The protein was aliquoted and flash-frozen in liquid Nitrogen.

[1] = system: BaF3-FL KIT D816V or BaF3-FL KIT V560G/D816V cell line; assay: Cell-based assays of c-Kit mutant kinase activity (cell growth, ATPlite); settings: at least one of the c-kit cell assays of Example 26
Summary of the method: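 BaF3 cells dependent on full-length human KIT (D816V or V560G/D816V) seeded at 1×10^4 cells/well in RPMI with 10% FBS. Eight-point 1:3 dilutions from 10 μM top final (0.2% DMSO), 3 days at 37° C., 5% CO2. ATPlite luminescence gave IC50.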

Sequence of c-kit mutant D816V (P10721 other isoform, or with tags, fused parts or gaps D816V/del 694-753): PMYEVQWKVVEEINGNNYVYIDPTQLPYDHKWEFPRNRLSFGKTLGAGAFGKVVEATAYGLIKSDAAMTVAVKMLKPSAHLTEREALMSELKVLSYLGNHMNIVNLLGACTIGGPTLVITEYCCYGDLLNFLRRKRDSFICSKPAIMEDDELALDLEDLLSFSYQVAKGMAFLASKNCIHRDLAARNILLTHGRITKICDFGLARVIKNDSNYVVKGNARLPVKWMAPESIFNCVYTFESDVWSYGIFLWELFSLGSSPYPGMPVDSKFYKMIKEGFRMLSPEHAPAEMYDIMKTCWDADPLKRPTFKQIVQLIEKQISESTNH

**Q.** How did the IC50 (c-kit mutant D816V) turn out when Cc1onc(C(=O)Nc2cnc3[nH]c(-c4ccccc4)cc3c2)c1C [P-2017, 4,5-dimethyl-N-(2-phenyl-1H-pyrrolo[2,3-b]pyridin-5-yl)isoxazole-3-carboxamide] was run?
**A.** 10 to 200 µM

**Q.** With N#CCc1cccc(C(=O)Nc2cnc3[nH]c(-c4ccc(F)cc4)cc3c2)c1 [P-2021, 3-(cyanomethyl)-N-[2-(4-fluorophenyl)-1H-pyrrolo[2,3-b]pyridin-5-yl]benzamide] as the molecule, how does the IC50 (c-kit mutant D816V) read?
**A.** 10 to 200 µM

**Q.** How did the IC50 (c-kit mutant D816V) turn out when N#Cc1cccc(C(=O)Nc2cnc3[nH]c(-c4ccc(F)cc4)cc3c2)c1 [P-2025, 3-cyano-N-[2-(4-fluorophenyl)-1H-pyrrolo[2,3-b]pyridin-5-yl]benzamide] was run?
**A.** 10 to 200 µM

**Q.** How did the IC50 [1] turn out when Cc1n[nH]c(C(=O)Nc2cnc3[nH]nc(-c4ccc(F)cc4)c3c2)c1C [P-2041, N-(3-(4-fluorophenyl)-1H-pyrazolo[3,4-b]pyridin-5-yl)-3,4-dimethyl-1H-pyrazole-5-carboxamide] was run?
**A.** < 10000 nM

**Q.** What about the IC50 (c-kit mutant D816V) of the same molecule?
**A.** 0.0001 to 1 µM

**Q.** For O=C(Nc1cnc2[nH]c(-c3ccc(F)cc3)cc2c1)c1n[nH]c2c1CCC2 [P-2056, N-[2-(4-fluorophenyl)-1H-pyrrolo[2,3-b]pyridin-5-yl]-1,4,5,6-tetrahydrocyclopenta[c]pyrazole-3-carboxamide], which IC50 [1] is on record?
**A.** < 10000 nM

**Q.** What about the IC50 (c-kit mutant D816V) of the same molecule?
**A.** 0.0001 to 1 µM

**Q.** Which results are given for Cc1n[nH]c(C(=O)Nc2cnc3[nH]c(C#CCF)cc3c2)c1C [P-2063, N-[2-(3-fluoroprop-1-ynyl)-1H-pyrrolo[2,3-b]pyridin-5-yl]-3,4-dimethyl-1H-pyrazole-5-carboxamide]?
**A.** IC50 [1]: < 10000 nM; IC50 (c-kit mutant D816V): 0.0001 to 1 µM

**Q.** Which results are given for Cc1n[nH]c(C(=O)Nc2cnc3[nH]c(-c4cccc(OCCN5CCOCC5)c4)cc3c2)c1C [P-2066, 3,4-dimethyl-N-[2-[3-(2-morpholinoethoxy)phenyl]-1H-pyrrolo[2,3-b]pyridin-5-yl]-1H-pyrazole-5-carboxamide]?
**A.** IC50 [1]: < 10000 nM; IC50 (c-kit mutant D816V): 0.0001 to 1 µM

**Q.** With Cc1cc(C(=O)Nc2cnc3[nH]c(C#CCF)cc3c2)[nH]n1 [P-2068, N-[2-(3-fluoroprop-1-ynyl)-1H-pyrrolo[2,3-b]pyridin-5-yl]-3-methyl-1H-pyrazole-5-carboxamide] as the molecule, how does the IC50 [1] read?
**A.** < 10000 nM

**Q.** What about the IC50 (c-kit mutant D816V) of the same molecule?
**A.** 1 to 10 µM

**Q.** How did the IC50 (c-kit mutant D816V) turn out when Cc1[nH]nc(NC(=O)c2cnc3[nH]c(-c4ccccc4)cc3c2)c1C [P-2071] was run?
**A.** 10 to 200 µM

**Q.** How did the IC50 [1] turn out when Cc1[nH]nc(C(=O)Nc2cnc3cc(-c4ccc(F)cc4)nn3c2)c1C [P-2072, N-[2-(4-fluorophenyl)pyrazolo[1,5-a]pyrimidin-6-yl]-4,5-dimethyl-1H-pyrazole-3-carboxamide] was run?
**A.** < 10000 nM

**Q.** What about the IC50 (c-kit mutant D816V) of the same molecule?
**A.** 1 to 10 µM

**Q.** How did the IC50 [1] turn out when COc1ccc(-c2cc3cc(NC(=O)c4[nH]nc(C)c4C)cnc3[nH]2)c(Cl)c1 [P-2075, N-[2-(2-chloro-4-methoxy-phenyl)-1H-pyrrolo[2,3-b]pyridin-5-yl]-3,4-dimethyl-1H-pyrazole-5-carboxamide] was run?
**A.** < 10000 nM

**Q.** What about the IC50 (c-kit mutant D816V) of the same molecule?
**A.** 0.0001 to 1 µM

**Q.** How did the IC50 [1] turn out when COc1ccc(-c2cc3cc(NC(=O)c4[nH]nc(C)c4C)cnc3[nH]2)c(F)c1 [P-2076, N-[2-(2-fluoro-4-methoxy-phenyl)-1H-pyrrolo[2,3-b]pyridin-5-yl]-3,4-dimethyl-1H-pyrazole-5-carboxamide] was run?
**A.** < 10000 nM

**Q.** And the IC50 (c-kit mutant D816V)?
**A.** 0.0001 to 1 µM

**Q.** How did the IC50 [1] turn out when COc1ccc(Cl)c(-c2cc3cc(NC(=O)c4[nH]nc(C)c4C)cnc3[nH]2)c1 [P-2077, N-[2-(2-chloro-5-methoxy-phenyl)-1H-pyrrolo[2,3-b]pyridin-5-yl]-3,4-dimethyl-1H-pyrazole-5-carboxamide] was run?
**A.** < 10000 nM

**Q.** And the IC50 (c-kit mutant D816V)?
**A.** 1 to 10 µM

**Q.** Which IC50 [1] does the source give for Cc1n[nH]c(C(=O)Nc2cnc3[nH]c(-c4cc(F)cc(N5CCOCC5)c4)cc3c2)c1C [P-2078, N-[2-(3-fluoro-5-morpholino-phenyl)-1H-pyrrolo[2,3-b]pyridin-5-yl]-3,4-dimethyl-1H-pyrazole-5-carboxamide] here?
**A.** < 10000 nM

**Q.** And the IC50 (c-kit mutant D816V)?
**A.** 0.0001 to 1 µM

**Q.** What does the source list for Cc1n[nH]c(C(=O)Nc2cnc3[nH]c(-c4cc(OC(F)(F)F)ccc4Cl)cc3c2)c1C [P-2113, N-[2-[2-chloro-5-(trifluoromethoxy)phenyl]-1H-pyrrolo[2,3-b]pyridin-5-yl]-3,4-dimethyl-1H-pyrazole-5-carboxamide]?
**A.** IC50 [1]: < 10000 nM; IC50 (c-kit mutant D816V): 1 to 10 µM

**Q.** With Cc1cc2ncc(NC(=O)c3n[nH]c(C)c3C)cn2n1 [P-2114, 4,5-dimethyl-N-(2-methylpyrazolo[1,5-a]pyrimidin-6-yl)-1H-pyrazole-3-carboxamide] as the molecule, how does the IC50 [1] read?
**A.** < 10000 nM

**Q.** And the IC50 (c-kit mutant D816V)?
**A.** 1 to 10 µM

**Q.** What does the source list for Cc1n[nH]c(C(=O)Nc2cnc3[nH]c(N4CCCC4)cc3c2)c1C [P-2115, 3,4-dimethyl-N-(2-pyrrolidin-1-yl-1H-pyrrolo[2,3-b]pyridin-5-yl)-1H-pyrazole-5-carboxamide]?
**A.** IC50 [1]: < 10000 nM; IC50 (c-kit mutant D816V): 1 to 10 µM

**Q.** How did the IC50 [1] turn out when Cc1n[nH]c(C(=O)Nc2cnc3[nH]c(-c4ccc(C#N)c(N5CCCC5)c4)cc3c2)c1C [P-2120, N-[2-(4-cyano-3-pyrrolidin-1-yl-phenyl)-1H-pyrrolo[2,3-b]pyridin-5-yl]-3,4-dimethyl-1H-pyrazole-5-carboxamide] was run?
**A.** < 10000 nM

**Q.** And the IC50 (c-kit mutant D816V)?
**A.** 0.0001 to 1 µM

**Q.** Which results are given for CNS(=O)(=O)c1cccc(-c2cc3cc(NC(=O)c4[nH]nc(C)c4C)cnc3[nH]2)c1 [P-2121, 3,4-dimethyl-N-[2-[3-(methylsulfamoyl)phenyl]-1H-pyrrolo[2,3-b]pyridin-5-yl]-1H-pyrazole-5-carboxamide]?
**A.** IC50 [1]: < 10000 nM; IC50 (c-kit mutant D816V): 0.0001 to 1 µM

**Q.** For Cc1n[nH]c(C(=O)Nc2cnc3[nH]c(-c4ccc(Cl)cc4)cc3c2)c1C [P-2122, N-[2-(4-chlorophenyl)-1H-pyrrolo[2,3-b]pyridin-5-yl]-3,4-dimethyl-1H-pyrazole-5-carboxamide], which IC50 [1] is on record?
**A.** < 10000 nM

**Q.** And the IC50 (c-kit mutant D816V)?
**A.** 0.0001 to 1 µM

**Q.** With Cc1ccc(-c2cc3cc(NC(=O)c4[nH]nc(C)c4C)cnc3[nH]2)cn1 [P-2123, 3,4-dimethyl-N-[2-(6-methyl-3-pyridyl)-1H-pyrrolo[2,3-b]pyridin-5-yl]-1H-pyrazole-5-carboxamide] as the molecule, how does the IC50 [1] read?
**A.** < 10000 nM

**Q.** And the IC50 (c-kit mutant D816V)?
**A.** 0.0001 to 1 µM

**Q.** What does the source list for Cc1n[nH]c(C(=O)Nc2cnc3[nH]c(-c4ccccc4)nc3c2)c1C [P-2145, 3,4-dimethyl-N-(2-phenyl-3H-imidazo[4,5-b]pyridin-6-yl)-1H-pyrazole-5-carboxamide]?
**A.** IC50 [1]: < 10000 nM; IC50 (c-kit mutant D816V): 0.0001 to 1 µM

**Q.** What does the source list for Cc1n[nH]c(C(=O)Nc2cnc3[nH]c(-c4cccc(F)c4C)cc3c2)c1C [P-2146, N-[2-(3-fluoro-2-methyl-phenyl)-1H-pyrrolo[2,3-b]pyridin-5-yl]-3,4-dimethyl-1H-pyrazole-5-carboxamide]?
**A.** IC50 [1]: < 10000 nM; IC50 (c-kit mutant D816V): 0.0001 to 1 µM

**Q.** With Cc1n[nH]c(C(=O)Nc2cnc3[nH]c(-c4ccc(OCC5(C)COC5)cc4)cc3c2)c1C [P-2149, 3,4-dimethyl-N-[2-[4-[(3-methyloxetan-3-yl)methoxy]phenyl]-1H-pyrrolo[2,3-b]pyridin-5-yl]-1H-pyrazole-5-carboxamide] as the molecule, how does the IC50 [1] read?
**A.** < 10000 nM

**Q.** What about the IC50 (c-kit mutant D816V) of the same molecule?
**A.** 0.0001 to 1 µM

**Q.** How did the IC50 [1] turn out when Cc1n[nH]c(C(=O)Nc2cnc3[nH]c(-c4ccccc4)nc3c2)c1Cl [P-2150, 4-chloro-3-methyl-N-(2-phenyl-3H-imidazo[4,5-b]pyridin-6-yl)-1H-pyrazole-5-carboxamide] was run?
**A.** < 10000 nM

**Q.** And the IC50 (c-kit mutant D816V)?
**A.** 0.0001 to 1 µM

**Q.** For Cc1cc(C(=O)Nc2cnc3[nH]c(-c4ccccc4)nc3c2)[nH]n1 [P-2151, 3-methyl-N-(2-phenyl-3H-imidazo[4,5-b]pyridin-6-yl)-1H-pyrazole-5-carboxamide], which IC50 [1] is on record?
**A.** < 10000 nM

**Q.** And the IC50 (c-kit mutant D816V)?
**A.** 1 to 10 µM

**Q.** For Cc1n[nH]c(C(=O)Nc2cnc3[nH]c(-c4ccccc4F)nc3c2)c1C [P-2152, N-[2-(2-fluorophenyl)-3H-imidazo[4,5-b]pyridin-6-yl]-3,4-dimethyl-1H-pyrazole-5-carboxamide], which IC50 [1] is on record?
**A.** < 10000 nM

**Q.** And the IC50 (c-kit mutant D816V)?
**A.** 0.0001 to 1 µM

**Q.** With CCOc1ncc(-c2cc3cc(NC(=O)c4[nH]nc(C)c4C)cnc3[nH]2)cn1 [P-2153, N-[2-(2-ethoxypyrimidin-5-yl)-1H-pyrrolo[2,3-b]pyridin-5-yl]-3,4-dimethyl-1H-pyrazole-5-carboxamide] as the molecule, how does the IC50 [1] read?
**A.** < 10000 nM

**Q.** What about the IC50 (c-kit mutant D816V) of the same molecule?
**A.** 0.0001 to 1 µM
